For one assay, the system named is fungi. The note with it: cited from earlier work.
Assay [1] deals with tsFT210 cells. Nature of the assay: Flow cytometry, G2/M arrest in tsFT210 cells. Type of assay: cell-based, mouse. The note with it: 6 hours. As for the experimental part:
Oncogene 18:6989-6996, Th′ng JP, Wright PS, Hamaguchi J, Lee MG, Norbury CJ, Nurse P and Bradbury EM (1990) The FT210 cell line is a mouse G2 phase mutant with a temperature-sensitive CDC2 gene product. Cell 63:313-324.). Cell proliferation was blocked at G2 phase by incubation at 39.4° C. for 17 h. The synchronized cells were then released by re-incubating at 32.0° C. and treated immediately with 0-10 μM SR-7, 1 μM nocodazole or 100 EM SC-ααδ9, respectively, to probe for G2/M arrest. […] The harvested cells were stained with a solution containing 50 μg/ml propidium iodide and 250 μg/ml RNase A. Flow cytometry analysis was conducted with a Becton Dickinson FACS Star (Franklin Lakes, N.J.). […] This G2/M retention at 4C is probably due to the extended cell cycle blockage at 39.4° C. (Osada H, Cui CB, Onose R and Hanaoka F (1997) Screening of cell cycle inhibitors from microbial metabolites by a bioassay using a mouse cdc2 mutant cell line, tsFT210. Bioorg Med Chem 5:193-203). […] SC-ααδ9 is an inhibitor of the Cdc25 family of phosphatases that controls cell cycle checkpoints (Rice RL, Rusnak JM, Yokokawa F, Yokokawa S, Messner DJ, Boynton AL, Wipf P and Lazo JS (1997) A targeted library of small molecule, tyrosine and dual specificity phosphatase inhibitors derived from a rational core design and random side chain variation. Biochemistry 36:15965-15974).
A general note: Flow cytometry measures light scatter and fluorescence of single cells or particles in a stream.

The subject of the next assay is Cdk1. The assay is described as follows: Western blotting for Cdk1 phosphorylation status in tsFT210 cells. To be noted: 6 hours. Type of assay: cell-based, mouse. Here is the method: tsFT210 cells were harvested using the same procedure for cell synchronizing and drug exposure as described above for the G2/M flow cytometric analysis. The protein lysates were analyzed by Western blotting for Cdk1 as described previously (Tamura K, Southwick EC, Kerns J, Rosi K, Carr BI, Wilcox C and Lazo JS (2000) Cdc25 inhibition and cell cycle arrest by a synthetic thioalkyl vitamin K analogue. Cancer Res 60:1317-1325.). The inventors used Cdk1 isolated from human MCF-7 cells to assay for in vitro inhibition of enzyme activity because of available antibodies and convenience. Asynchronous cells grown at 37° C. in 5% CO2 in DMEM containing 10% fetal bovine serum were treated with lysis buffer and harvested as previously described (Vogt A, Wang AS, Johnson CS, Fabisiak JP, Wipf P and Lazo JS (2000) In vivo antitumor activity and induction of insulin-like growth factor-1 resistant apoptosis by SC-ααδ9. J Pharmacol Exptl Therap 292:530-537.). Cdk1 kinase activity assay was performed as previously described (Yu L, Orlandi L, Wang P, Orr MS, Senderowicz AM, Sausville EA, Silvestrini R, Watanabe N, Piwnica-Worms H, O° Connor PM (1998) UCN-01 arogates G2 arrest through a Cdc2-dependent pathway that is associated with inactivation of the WeelHu kinase and activation of the Cdc25C phosphatase. J Biol Chem 273: 33455-33464.). […] Histone H1 was separated from other proteins by SDS-PAGE and analyzed for incorporation of radioactive phosphate with a Molecular Dynamics STORM 860 Phospholmager (Sunnyvale, CA).
The major controlling molecule for G2/M transition is the cyclin dependent kinase, Cdk1, whose cellular activity is tightly regulated by phosphorylation (Pines J (1999) Four-dimensional control of the cell cycle. Nature Cell Biol 1:E73-79., Hunter T and Pines J (1994) Cyclins and cancer II: cyclin D and CDK inhibitors come of age. Cell 79:573-582). […] The protein lysates were analyzed by Western blotting for Cdk1 content and phosphorylation status as described elsewhere herein. […]

In assay [2] the test system is tsFT210 cells. The assay is described as follows: Flow cytometry, G1 transition in tsFT210 cells. Type of assay: cell-based, mouse. The note with it: 100 μM, additional 6 hours.
For assay [3], the system named is bovine brain tubulin. The assay is described as follows: GTP-induced tubulin assembly (turbidity). Type of assay: biochemical. Here is the method: Tubulin without microtubule-associated proteins was isolated from fresh bovine brains (Hamel E and Lin CM (1984). Separation of active tubulin and microtubule-associated proteins by ultracentrifugation and isolation of a component causing the formation of microtubule bundles. Biochemistry 23:4173-4184). Inhibition of assembly reactions was carried out as described previously (Verdier-Pinard P, Lai J-Y, Yoo H-D, Yu J, Marquez B, Nagle DG, Nambu M, White JD, Falck JR, Gerwick WH, Day BW and Hamel E (1998) Structure-activity analysis of the interaction of curacin A, the potent colchicine site antimitotic agent, with tubulin and effects of analogs on the growth of MCF-7 breast cancer cells. Mol Pharmacol 53:62-76.).
The inventors examined the ability of SR-7 to alter tubulin polymerization or depolymerization in vitro. FIG. 28, Panel A. Compounds (predissolved in DMSO) were preincubated with tubulin containing monosodium glutamate at 30 ° C. for 15 min. Samples were cooled to 0 ° C. and GTP was added. Samples were placed in a temperature-controlled multi-cuvette holder of a spectrophotometer held at 0 ° C. Baselines were established and temperature was rapidly raised to 30 ° C. Turbidity development in the cuvettes was measured at 350 nm. FIG. 28, Panel B. Compounds were added to the tubulin plus monosodium glutamate mixture at 0 ° C., placed in the spectrophotometer and temperature was raised to 30 ° C. Addition of 0.4 mM GTP to isolated bovine brain tubulin produced robust polymerization that began to plateau approximately 20 min after microtubule assembly commenced (Panel A).

The test system of assay [4] is bovine brain tubulin. Nature of the assay: Inhibition of [3H]colchicine binding. To be noted: Mean ± SEM, N = 9. Here is the method: Using methods described previously (Verdier-Pinard P, Lai J-Y, Yoo H-D, Yu J, Marquez B, Nagle DG, Nambu M, White JD, Falck JR, Gerwick WH, Day BW and Hamel E (1998) Structure-activity analysis of the interaction of curacin A, the potent colchicine site antimitotic agent, with tubulin and effects of analogs on the growth of MCF-7 breast cancer cells. Mol Phannacol 53:62-76.). 5,μM [^3H]colchicine was incubated with either 5% DMSO vehicle or compound (5 or 50 μM) at 37° C. for 15 min with 1 μM tubulin in the presence of 1 M monosodium glutamate, 0.1 M glucose-1-phosphate, 1 mM MgCl2, 1 mM GTP and 0.5 mg/ml bovine serum albumin. The solutions were filtered through two stacks of DEAE-cellulose filters and the radioactivity in the filtrate was determined by liquid scintillation spectrometry. Each series of determinations included positive controls of 5 and 50 μM curacin A. The inventors found no evidence that SR-7 could bind to the colchicine site of tubulin. […] The inventors propose that SR-7 may act at another site such as the previously characterized vinca alkaloid site.

The next assay concerns Bcl-2. Nature of the assay: Bcl-2 phosphorylation immunoblot in MCF-7 cells. Type of assay: cell-based, human. An excerpt: Attempts to determine the phosphorylation status of Bcl-2 in tsFT210 cells using two different antibodies were unsuccessful due to the antibodies' inability to detect mouse Bcl-2 or the lack of specificity. Therefore, phosphorylated and non-phosphorylated Bcl-2 was detected in lysates from human MCF-7 cells (American Type Culture Collection, Manassas, Va.) treated with microtubule perturbing agents. Equal amounts of protein were separated by electrophoresis on 15% SDS-PAGE followed by immunoblotting with an antihuman Bcl-2 antibody (sc-509, Santa Cruz Biotechnology). Positive antibody reactions were visualized using peroxidase-conjugated secondary antibodies (Jackson ImmunoResearch, West Grove, Pa.) and an enhanced chemiluminescence detection system (Renaissance, NEN, Boston, Mass.) according to manufacturer's instructions.
All known microtubule disrupting compounds cause hyperphosphorylation of the antiapoptotic protein Bcl-2 (Haldar S, Jena N and Croce CM (1995) Inactivation of bcl-2 by phospliorylation. Proc Natl Acad Sci USA 92:4507-4511 and Basu A and Haldar S (1998) Microtubule-damaging drugs trigger bcl2 phosphorylation-requirement of phosphorylation on both serine-70 and serine-87 residues of bcl2 protein. Intl J Oncol 13:659-664). Therefore, the phosphorylation status of Bcl-2 in cells treated with various compounds including SR-7 was examined and the results are illustrated in FIG. 29. Proteins from lysates of MCF-7 cells treated with 0.5 μM paclitaxel, 1 μM nocodozole, 1,μM vincristine and, 3 or 10 μM SR-7 were separated by electrophoresis on 15% SDS-PAGE followed by immunoblotting with an antibody to Bcl-2. The phosphorylated form of Bcl-2 (P) appeared as the upper bands and the underphosphorylated form (U) was the lower band.
(In general: A western blot detects proteins with antibodies after separation by electrophoresis.)

The structures appear in SMILES notation.

Regarding `O=C1c2c(O)ccc(O)c2C2(Oc3cccc4cccc(c34)O2)[C@@H]2O[C@H]12` [Palmarumycin C3], the antifungal activity entry in the assay on fungi is “high antifungal activity”.
As for `O=C1C=CC(=O)[C@@]23O[C@@]12C1(Oc2cccc4cccc(c24)O1)[C@@H]1O[C@@H]1[C@@H]3O` [Palmarumycin C10], the antifungal activity result in the assay with fungi is “high antifungal activity”.
Take `Oc1ccc(O)c2c1[C@H](O)[C@@H]1O[C@@H]1C21Oc2cccc3cccc(c23)O1` [Palmarumycin C12]: the antifungal activity result with fungi is reported as “high antifungal activity”.
Consider `O=C1CC[C@@H](O)[C@@H]2C1=C(O)C=CC21Oc2cccc3cccc(c23)O1` [Palmarumycin CP4], for which the antifungal activity entry with fungi is listed as “high antifungal activity”.
`CCCCCCCCCC(=O)NC(CCC(=O)N(CCNC(=O)c1nc(-c2ccccc2)oc1-c1ccccc1)Cc1ccccc1)C(=O)O` (stereo not drawn) [SC-ααδ9, 4-(benzyl-(2-[ (2,5-diphenyl-oxazole-4-carbonyl)-amino]-ethyl)-carbamoyl)-2-decanoylamino butyric acid, reference compound]: the “G2/M cell cycle transition” value in the assay on tsFT210 cells [1] (100 μM, Panel I) is recorded as “G2/M inhibition”. Also, the Cdk1 phosphorylation status result with Cdk1 (100 IM, lane 8) was “yielded a hyperphosphorylated Cdk1”. For the same molecule, the G1 transition entry in the assay with tsFT210 cells [2] is recorded as “caused a prominent G1 block”.
Take `C=CC[C@@H](CC/C(C)=C/C=C/CC/C=C\[C@@H]1CSC([C@@H]2C[C@@H]2C)=N1)OC` [curacin A]: the “inhibition of GTP-induced tubulin assembly” value is listed as 50% with bovine brain tubulin [3] (1 μM) and “completely inhibited GTP-induced tubulin assembly” in the assay on bovine brain tubulin [3] (5 μM). Also, the “Percent inhibition of [3H]colchicine binding” value in the assay with bovine brain tubulin [4] (5 μM compound, 5 µM) is recorded as roughly 90%; in the assay with bovine brain tubulin [4] (5 μM compound, listed as Curacin A, 5 µM), 89.8 ± 0.6%; with bovine brain tubulin [4] (50 μM compound), 97.3 ± 3.1%.
For `COC(=O)Nc1nc2cc(C(=O)c3cccs3)ccc2[nH]1` [nocodazole], in the assay with tsFT210 cells [1] (1 μM), the “G2/M cell cycle transition” value was “blocked cell passage through G2/M”. The Bcl-2 phosphorylation result with Bcl-2 (1 μM nocodozole) was “caused prominent phosphorylation of Bcl-2”. The Cdk1 phosphorylation status entry with Cdk1 (1 μM) is “no hyperphosphorylation of Cdk1 was seen”.
Take `CC(=O)O[C@H]1C(=O)[C@@]2(C)[C@H]([C@H](OC(=O)c3ccccc3)[C@]3(O)C[C@H](OC(=O)[C@H](O)[C@@H](NC(=O)c4ccccc4)c4ccccc4)C(C)=C1C3(C)C)[C@]1(OC(C)=O)CO[C@@H]1C[C@@H]2O` [paclitaxel]: the Bcl-2 phosphorylation entry with Bcl-2 (0.5 μM) was “caused prominent phosphorylation of Bcl-2”.
On to `CC[C@]1(O)C[C@H]2CN(CCc3c([nH]c4ccccc34)[C@@](C(=O)OC)(c3cc4c(cc3OC)N(C=O)[C@H]3[C@@](O)(C(=O)OC)[C@H](OC(C)=O)[C@]5(CC)C=CCN6CC[C@]43[C@@H]65)C2)C1` [vincristine], for which, in the assay with Bcl-2 (1 μM vincristine), the Bcl-2 phosphorylation entry is given as “caused prominent phosphorylation of Bcl-2”.

The values above are taken from patent US6673937B2, “Syntheses and methods of use of new antimitotic agents” (The University of Pittsburgh, priority 2000, dated 2004).
